Read-outs that look alike come from different tables or passages of the source.
Columns and labels:
Assay in all cases: Kinase selectivity, scanMAX Kinase assay panel (DiscoverX), % control at 1 uM
Type in all cases: binding
[1] = target: T1, scanMAX Kinase assay panel (Homo sapiens, UniProt Q99558); conditions: NIK; 1 uM; read-out: Percent Control (%)
T1 construct: purchased DiscoverX
How it was run: (§1)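 A single concentration of 1 uM, in DMSO, is applied across the kinase panel. Activity against an individual enzyme is assigned where % control is less than 35.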

[2] = target: T2, scanMAX Kinase assay panel (Homo sapiens, UniProt P54753); conditions: EPHB3; 1 uM; read-out: Percent Control (%)
T2 construct: purchased DiscoverX
T2 sequence (P54753 34-998): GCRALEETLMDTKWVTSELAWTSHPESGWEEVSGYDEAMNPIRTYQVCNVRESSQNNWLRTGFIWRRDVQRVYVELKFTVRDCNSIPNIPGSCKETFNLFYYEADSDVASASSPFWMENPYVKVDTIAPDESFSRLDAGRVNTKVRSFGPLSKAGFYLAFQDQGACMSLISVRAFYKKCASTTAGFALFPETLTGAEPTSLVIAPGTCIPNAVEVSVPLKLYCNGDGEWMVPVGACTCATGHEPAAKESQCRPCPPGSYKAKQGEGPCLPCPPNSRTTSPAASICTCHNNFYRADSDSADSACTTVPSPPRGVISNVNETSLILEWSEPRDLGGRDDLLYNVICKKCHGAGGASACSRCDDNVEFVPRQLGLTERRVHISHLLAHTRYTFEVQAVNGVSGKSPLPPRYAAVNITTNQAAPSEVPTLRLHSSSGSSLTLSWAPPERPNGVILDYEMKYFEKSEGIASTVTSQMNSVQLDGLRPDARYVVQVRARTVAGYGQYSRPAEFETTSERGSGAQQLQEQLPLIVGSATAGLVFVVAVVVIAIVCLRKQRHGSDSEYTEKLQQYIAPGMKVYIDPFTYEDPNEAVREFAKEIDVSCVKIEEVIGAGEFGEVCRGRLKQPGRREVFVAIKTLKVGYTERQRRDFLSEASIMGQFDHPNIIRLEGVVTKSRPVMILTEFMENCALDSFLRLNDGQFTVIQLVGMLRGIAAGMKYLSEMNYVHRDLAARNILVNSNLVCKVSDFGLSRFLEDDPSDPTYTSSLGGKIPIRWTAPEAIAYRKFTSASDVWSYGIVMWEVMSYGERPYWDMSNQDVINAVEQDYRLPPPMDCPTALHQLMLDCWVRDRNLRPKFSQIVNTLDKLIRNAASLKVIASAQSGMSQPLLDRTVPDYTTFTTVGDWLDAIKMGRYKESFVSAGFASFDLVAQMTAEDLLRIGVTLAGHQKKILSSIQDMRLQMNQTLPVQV
How it was run: as §1

[3] = target: T3, scanMAX Kinase assay panel (Homo sapiens, UniProt Q8NEV4); conditions: MYO3A; 1 uM; read-out: Percent Control (%)
T3 construct: purchased DiscoverX
T3 sequence (Q8NEV4 whole entry): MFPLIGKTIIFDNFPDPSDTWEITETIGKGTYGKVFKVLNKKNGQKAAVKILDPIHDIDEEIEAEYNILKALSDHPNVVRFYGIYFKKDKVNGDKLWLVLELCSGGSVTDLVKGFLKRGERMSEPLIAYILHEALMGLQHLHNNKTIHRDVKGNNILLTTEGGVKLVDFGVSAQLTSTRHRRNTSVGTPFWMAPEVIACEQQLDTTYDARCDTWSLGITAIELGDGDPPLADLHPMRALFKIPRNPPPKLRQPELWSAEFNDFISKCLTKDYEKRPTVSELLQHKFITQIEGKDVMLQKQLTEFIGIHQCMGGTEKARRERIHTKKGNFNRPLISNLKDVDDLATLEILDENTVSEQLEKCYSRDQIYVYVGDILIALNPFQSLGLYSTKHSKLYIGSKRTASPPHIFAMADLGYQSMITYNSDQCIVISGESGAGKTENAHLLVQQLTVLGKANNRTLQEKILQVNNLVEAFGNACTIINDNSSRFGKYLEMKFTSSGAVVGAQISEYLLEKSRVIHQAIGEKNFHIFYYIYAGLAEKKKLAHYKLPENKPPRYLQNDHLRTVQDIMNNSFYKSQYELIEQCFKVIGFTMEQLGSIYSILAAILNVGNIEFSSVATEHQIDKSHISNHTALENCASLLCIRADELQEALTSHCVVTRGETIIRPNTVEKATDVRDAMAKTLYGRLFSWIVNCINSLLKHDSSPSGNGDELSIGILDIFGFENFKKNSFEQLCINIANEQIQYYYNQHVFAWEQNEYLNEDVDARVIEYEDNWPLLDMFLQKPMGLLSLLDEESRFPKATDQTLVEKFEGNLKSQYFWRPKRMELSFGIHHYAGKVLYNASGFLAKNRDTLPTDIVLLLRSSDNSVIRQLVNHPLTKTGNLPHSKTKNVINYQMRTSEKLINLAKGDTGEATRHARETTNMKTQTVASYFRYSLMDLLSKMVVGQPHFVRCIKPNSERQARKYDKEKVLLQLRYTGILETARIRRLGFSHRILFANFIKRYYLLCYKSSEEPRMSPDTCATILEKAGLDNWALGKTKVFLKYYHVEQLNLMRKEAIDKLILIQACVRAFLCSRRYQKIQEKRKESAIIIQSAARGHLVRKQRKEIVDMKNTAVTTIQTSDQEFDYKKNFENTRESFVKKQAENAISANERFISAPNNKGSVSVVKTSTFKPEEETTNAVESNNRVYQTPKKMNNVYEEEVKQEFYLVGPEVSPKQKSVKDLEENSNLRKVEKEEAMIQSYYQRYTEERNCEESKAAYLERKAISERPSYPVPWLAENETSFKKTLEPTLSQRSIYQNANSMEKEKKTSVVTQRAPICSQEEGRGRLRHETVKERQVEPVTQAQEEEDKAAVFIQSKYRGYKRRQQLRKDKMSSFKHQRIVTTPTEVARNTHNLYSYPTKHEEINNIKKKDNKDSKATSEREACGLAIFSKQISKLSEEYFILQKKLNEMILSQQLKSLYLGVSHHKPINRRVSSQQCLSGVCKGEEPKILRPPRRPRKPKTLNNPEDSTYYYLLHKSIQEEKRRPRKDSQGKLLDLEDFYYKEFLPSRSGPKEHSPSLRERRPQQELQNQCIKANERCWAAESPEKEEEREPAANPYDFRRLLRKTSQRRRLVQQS
How it was run: as §1

[4] = target: T4, scanMAX Kinase assay panel (Homo sapiens, UniProt P23443); conditions: S6K1; 1 uM; read-out: Percent Control (%)
T4 construct: purchased DiscoverX
How it was run: as §1

[5] = target: T5, scanMAX Kinase assay panel (Homo sapiens, UniProt P49841); conditions: GSK3B; 1 uM; read-out: Percent Control (%)
T5 construct: purchased DiscoverX
T5 sequence (P49841 whole entry): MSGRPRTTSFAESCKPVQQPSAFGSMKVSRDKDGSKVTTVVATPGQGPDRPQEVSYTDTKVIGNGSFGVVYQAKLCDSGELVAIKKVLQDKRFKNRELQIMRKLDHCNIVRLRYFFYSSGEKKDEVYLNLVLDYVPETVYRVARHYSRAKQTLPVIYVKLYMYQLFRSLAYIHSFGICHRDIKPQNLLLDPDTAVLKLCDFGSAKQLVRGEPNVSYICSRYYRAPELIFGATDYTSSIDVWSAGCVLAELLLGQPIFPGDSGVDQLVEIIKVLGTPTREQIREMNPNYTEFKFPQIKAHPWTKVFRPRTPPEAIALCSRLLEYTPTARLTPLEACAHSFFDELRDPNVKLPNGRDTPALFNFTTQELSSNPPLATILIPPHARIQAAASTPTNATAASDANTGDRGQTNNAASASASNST
How it was run: as §1

[6] = target: T6, scanMAX Kinase assay panel (Homo sapiens, UniProt P22694); conditions: PKAC-beta; 1 uM; read-out: Percent Control (%)
T6 construct: purchased DiscoverX
How it was run: as §1

[7] = target: T7, scanMAX Kinase assay panel (Homo sapiens, UniProt P53671); conditions: LIMK2; 1 uM; read-out: Percent Control (%)
T7 construct: purchased DiscoverX
T7 sequence (P53671 whole entry): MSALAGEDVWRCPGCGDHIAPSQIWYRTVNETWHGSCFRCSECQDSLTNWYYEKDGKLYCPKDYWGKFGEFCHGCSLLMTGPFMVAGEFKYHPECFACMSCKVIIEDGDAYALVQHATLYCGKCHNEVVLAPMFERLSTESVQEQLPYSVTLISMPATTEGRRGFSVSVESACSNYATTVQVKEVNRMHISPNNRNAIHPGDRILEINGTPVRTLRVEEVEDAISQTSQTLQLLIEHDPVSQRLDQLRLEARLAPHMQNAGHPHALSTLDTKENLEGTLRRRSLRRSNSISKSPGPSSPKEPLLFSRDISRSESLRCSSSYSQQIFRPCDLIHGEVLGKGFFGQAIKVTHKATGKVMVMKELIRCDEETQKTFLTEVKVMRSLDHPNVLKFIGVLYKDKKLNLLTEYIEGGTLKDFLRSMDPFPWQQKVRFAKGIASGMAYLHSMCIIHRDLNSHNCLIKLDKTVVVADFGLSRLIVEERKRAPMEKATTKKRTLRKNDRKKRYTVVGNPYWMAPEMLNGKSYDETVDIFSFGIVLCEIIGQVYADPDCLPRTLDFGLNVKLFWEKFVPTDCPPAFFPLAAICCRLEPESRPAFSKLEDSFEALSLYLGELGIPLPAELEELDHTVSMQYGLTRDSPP
How it was run: as §1

[8] = target: T8, scanMAX Kinase assay panel (Homo sapiens, UniProt P22455); conditions: FGFR4; 1 uM; read-out: Percent Control (%)
T8 construct: purchased DiscoverX
T8 sequence (P22455 22-802): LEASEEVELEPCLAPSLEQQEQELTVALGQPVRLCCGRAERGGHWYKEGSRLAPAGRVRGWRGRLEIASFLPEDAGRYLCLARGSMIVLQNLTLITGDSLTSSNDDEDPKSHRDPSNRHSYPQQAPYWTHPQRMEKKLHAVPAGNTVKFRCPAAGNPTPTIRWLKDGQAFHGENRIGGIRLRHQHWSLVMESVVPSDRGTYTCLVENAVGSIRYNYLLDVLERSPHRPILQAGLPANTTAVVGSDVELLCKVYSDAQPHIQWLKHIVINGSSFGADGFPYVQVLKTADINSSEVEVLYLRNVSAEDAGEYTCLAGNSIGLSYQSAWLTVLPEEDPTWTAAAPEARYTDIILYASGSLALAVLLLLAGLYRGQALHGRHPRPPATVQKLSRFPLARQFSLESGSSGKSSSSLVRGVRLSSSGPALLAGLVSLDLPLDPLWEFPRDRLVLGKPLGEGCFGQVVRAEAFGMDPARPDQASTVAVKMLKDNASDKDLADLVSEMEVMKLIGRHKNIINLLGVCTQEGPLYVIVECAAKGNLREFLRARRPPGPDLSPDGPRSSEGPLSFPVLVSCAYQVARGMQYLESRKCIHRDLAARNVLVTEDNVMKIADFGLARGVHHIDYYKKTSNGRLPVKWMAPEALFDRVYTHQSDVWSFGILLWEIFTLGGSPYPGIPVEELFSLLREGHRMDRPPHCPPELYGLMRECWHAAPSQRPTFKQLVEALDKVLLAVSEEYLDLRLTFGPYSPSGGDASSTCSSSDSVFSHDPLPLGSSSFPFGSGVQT
How it was run: as §1

[9] = target: T9, scanMAX Kinase assay panel (Homo sapiens, UniProt P27448); conditions: MARK3; 1 uM; read-out: Percent Control (%)
T9 construct: purchased DiscoverX
How it was run: as §1

[10] = target: T10, scanMAX Kinase assay panel (Homo sapiens, UniProt Q9Y6R4); conditions: MAP3K4; 1 uM; read-out: Percent Control (%)
T10 construct: purchased DiscoverX
T10 sequence (Q9Y6R4 whole entry): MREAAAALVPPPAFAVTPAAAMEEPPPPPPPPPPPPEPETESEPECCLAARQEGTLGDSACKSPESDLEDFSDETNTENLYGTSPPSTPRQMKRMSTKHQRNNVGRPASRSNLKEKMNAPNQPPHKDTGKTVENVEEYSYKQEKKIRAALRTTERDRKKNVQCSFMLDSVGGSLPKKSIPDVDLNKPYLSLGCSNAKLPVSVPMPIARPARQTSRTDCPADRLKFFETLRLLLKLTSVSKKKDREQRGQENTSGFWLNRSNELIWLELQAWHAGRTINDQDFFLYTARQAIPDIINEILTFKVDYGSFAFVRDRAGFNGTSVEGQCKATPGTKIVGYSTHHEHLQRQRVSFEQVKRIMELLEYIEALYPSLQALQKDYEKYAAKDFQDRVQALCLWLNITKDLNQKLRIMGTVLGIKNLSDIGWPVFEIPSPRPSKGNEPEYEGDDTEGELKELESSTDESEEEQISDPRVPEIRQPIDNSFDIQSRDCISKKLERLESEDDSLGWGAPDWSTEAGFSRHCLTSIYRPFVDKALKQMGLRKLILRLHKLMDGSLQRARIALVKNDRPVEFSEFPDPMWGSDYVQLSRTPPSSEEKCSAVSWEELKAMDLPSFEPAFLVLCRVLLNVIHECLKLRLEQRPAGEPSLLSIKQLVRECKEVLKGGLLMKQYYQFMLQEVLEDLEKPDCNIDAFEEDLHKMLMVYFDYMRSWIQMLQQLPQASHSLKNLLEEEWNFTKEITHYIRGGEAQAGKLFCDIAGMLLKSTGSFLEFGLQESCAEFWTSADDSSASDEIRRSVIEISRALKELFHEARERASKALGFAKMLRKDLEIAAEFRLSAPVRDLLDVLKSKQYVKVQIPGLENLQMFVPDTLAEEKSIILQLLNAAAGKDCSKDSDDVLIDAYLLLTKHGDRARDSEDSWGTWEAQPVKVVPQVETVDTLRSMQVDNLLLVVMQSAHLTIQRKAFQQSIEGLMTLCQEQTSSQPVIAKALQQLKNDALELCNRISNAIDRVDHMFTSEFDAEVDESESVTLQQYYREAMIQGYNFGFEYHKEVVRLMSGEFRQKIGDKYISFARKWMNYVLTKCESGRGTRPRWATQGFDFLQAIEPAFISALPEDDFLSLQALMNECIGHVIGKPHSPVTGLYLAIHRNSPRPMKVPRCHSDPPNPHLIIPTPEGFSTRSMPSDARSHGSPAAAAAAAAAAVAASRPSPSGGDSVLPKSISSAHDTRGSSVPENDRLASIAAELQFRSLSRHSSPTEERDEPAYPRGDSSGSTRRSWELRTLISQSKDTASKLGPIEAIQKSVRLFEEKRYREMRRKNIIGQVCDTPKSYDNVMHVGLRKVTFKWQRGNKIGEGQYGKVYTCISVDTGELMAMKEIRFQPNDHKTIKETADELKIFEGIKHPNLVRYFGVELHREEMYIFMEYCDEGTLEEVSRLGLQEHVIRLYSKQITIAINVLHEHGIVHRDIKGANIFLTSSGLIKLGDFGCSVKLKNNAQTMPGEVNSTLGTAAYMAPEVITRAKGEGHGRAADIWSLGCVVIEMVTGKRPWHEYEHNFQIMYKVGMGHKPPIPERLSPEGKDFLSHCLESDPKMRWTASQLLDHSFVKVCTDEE
How it was run: as §1

[11] = target: T11, scanMAX Kinase assay panel (Homo sapiens, UniProt P42336); conditions: PIK3CA; 1 uM; read-out: Percent Control (%)
T11 construct: purchased DiscoverX
How it was run: as §1

[12] = target: T12, scanMAX Kinase assay panel (Homo sapiens, UniProt Q9Y616); conditions: IRAK3; 1 uM; read-out: Percent Control (%)
T12 construct: purchased DiscoverX
T12 sequence (Q9Y616 1-596): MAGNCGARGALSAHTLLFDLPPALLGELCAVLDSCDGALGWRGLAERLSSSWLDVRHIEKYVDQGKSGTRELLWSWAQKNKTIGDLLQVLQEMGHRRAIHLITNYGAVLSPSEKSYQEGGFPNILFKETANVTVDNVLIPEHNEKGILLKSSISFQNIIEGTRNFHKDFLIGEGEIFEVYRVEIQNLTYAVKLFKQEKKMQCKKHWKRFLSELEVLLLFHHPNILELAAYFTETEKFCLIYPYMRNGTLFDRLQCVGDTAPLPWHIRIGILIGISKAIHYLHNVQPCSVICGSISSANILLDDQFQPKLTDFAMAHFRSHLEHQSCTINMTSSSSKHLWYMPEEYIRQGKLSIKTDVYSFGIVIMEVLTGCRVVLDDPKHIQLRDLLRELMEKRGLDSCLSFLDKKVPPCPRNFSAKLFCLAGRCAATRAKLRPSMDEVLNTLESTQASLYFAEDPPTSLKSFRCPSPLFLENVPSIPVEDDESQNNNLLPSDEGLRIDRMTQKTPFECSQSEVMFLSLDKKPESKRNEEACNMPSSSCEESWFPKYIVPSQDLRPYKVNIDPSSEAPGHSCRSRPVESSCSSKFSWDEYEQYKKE
How it was run: as §1

[13] = target: T13, scanMAX Kinase assay panel (Homo sapiens, UniProt P00519, T315I); conditions: 1 uM, read-out: Percent Control (%)
T13 construct: purchased DiscoverX
How it was run: as §1

Row | Compound | remaining binding at 1 µM [1] [%] | remaining binding at 1 µM [2] [%] | remaining binding at 1 µM [3] [%] | remaining binding at 1 µM [4] [%] | remaining binding at 1 µM [5] [%] | remaining binding at 1 µM [6] [%] | remaining binding at 1 µM [7] [%] | remaining binding at 1 µM [8] [%] | remaining binding at 1 µM [9] [%] | remaining binding at 1 µM [10] [%] | remaining binding at 1 µM [11] [%] | remaining binding at 1 µM [12] [%] | remaining binding at 1 µM ([13]; ABL1 (T315I)-nonphosphorylated) [%] | remaining binding at 1 µM ([13]; ABL1 (T315I)-phosphorylated) [%]
1 | Cc1ccc(NC(=O)C2(C(=O)Nc3ccc(F)cc3)CC2)cc1C#Cc1cnc2c(Nc3cnn(C(C)C)c3)cccn12 [Example 78] | 97 | 100 | 100 | 100 | 96 | 98 | 100 | 100 | 100 | 90 | 100 | 87 | 100 | 100
2 | Cc1cn(-c2cc(NC(=O)c3ccc(C)c(C#Cc4cnc5c(Nc6cnn(C)c6)cccn45)c3)cc(C(F)(F)F)c2)cn1 [Example 12, 4-methyl-N-(3-(4-methyl-1H-imidazol-1-yl)-5-(trifluoromethyl)phenyl)-3-((8-((1-methyl-1H-pyrazol-4-yl)amino)imidazo[1,2-a]pyridin-3-yl)ethynyl)benzamide] | 85 | 100 | 88 | 100 | 85 | 87 | 50 | 32 | 94 | 92 | 100 | 72 | 15 | 15
3 | Cc1ccc(C(=O)Nc2ccc(CN3CCN(C)CC3)c(C(F)(F)F)c2)cc1C#Cc1cnc2c(Nc3cnn(C)c3)cccn12 [Example 1, 4-methyl-3-((8-((1-methyl-1H-pyrazol-4-yl)amino)imidazo[1,2-a]pyridin-3-yl)ethynyl)-N-(4-((4-methylpiperazin-1-yl)methyl)-3-(trifluoromethyl)phenyl)benzamide] | 91 | 47 | 14 | 14 | 79 | 34 | 3 | 0 | 53 | 70 | 99 | 84 | 1 | 1
